Experimental data as given in patent US7005257B1, “Detection of antibiotic resistance in microorganisms” (priority 1998, dated 2006).
Values after ≈ are worked out from the molar mass of the structure shown. Where two headings read alike, the source gives them in different places.

Tests used:
Helicobacter = conditions: cited from earlier work
E. coli = test system: E. coli; set-up: key: HS, hypersensitive; R, resistant; S, sensitive; conditions: cited from earlier work
23S rRNA = conditions: protein-free 23S rRNA extracts (Noller et al., 1992); cited from earlier work
P. acnes = test system: P. acnes; set-up: key: HS, hypersensitive; R, resistant; S, sensitive; conditions: cited from earlier work
M. pneumoniae = test system: M. pneumoniae; set-up: key: HS, hypersensitive; R, resistant; S, sensitive; conditions: cited from earlier work
H. pylori [1] = assay: MIC value of conventionally characterized H. pylori isolates (clarithromycin); assay type: cell-based, Helicobacter pylori; set-up: MIC value: unit not given beside the values; conditions: for MIC: Helicobacter pylori
Description: Evaluating the MIC value determination by in-situ hybridization using conventionally characterized H. pylori isolates.

H. pylori [2] = test system: H. pylori; set-up: key: HS, hypersensitive; R, resistant; S, sensitive; conditions: cited from earlier work
M. intracellulare = test system: M. intracellulare; set-up: key: HS, hypersensitive; R, resistant; S, sensitive; conditions: cited from earlier work

For `O=C([O-])c1ccccc1[O-].[Bi+3].[OH-]` [BSS], the “Effect on Helicobacter” value (Helicobacter) is listed as “bactericidal effect”.

In the case of `O=C(N[C@H](CO)[C@H](O)c1ccc([N+](=O)[O-])cc1)C(Cl)Cl` [chloramphenicol], the Phenotype (E. coli; 23S rRNA mutation A2503C) is given as “Cam^R”, the Phenotype (E. coli; 23S rRNA mutation G2032A) is given as “R” and the Phenotype (E. coli; 23S rRNA mutation G2032C) is given as “S”. The Phenotype (E. coli; 23S rRNA mutation G2032U) was “S” and the Phenotype (E. coli; 23S rRNA mutation G2057A) was “Ery^R, Cam^R”.

In the case of `CO[C@@H]1[C@@H](O[C@@H]2O[C@H](C)[C@@H](O[C@H]3C[C@@](C)(O)[C@@H](OC(=O)CC(C)C)[C@H](C)O3)[C@H](N(C)C)[C@H]2O)[C@@H](CC=O)C[C@@H](C)C(=O)/C=C/[C@@H]2O[C@@H]2C[C@@H](C)OC(=O)C[C@H]1OC(C)=O` [carbomycin], the “Inhibition of in-vitro peptidyltransferase activity” value (23S rRNA) is given as “able to inhibit”.

In the case of `CCC[C@@H]1C[C@@H](C(=O)N[C@@H]([C@H]2O[C@H](SC)[C@H](O)[C@@H](O)[C@H]2O)[C@@H](C)O)N(C)C1` [lincomycin], the Phenotype (E. coli; 23S rRNA mutation C2611U) is listed as “Ery^RLin^RSgb^R”.

In the case of `CC[C@H]1OC(=O)[C@H](C)[C@@H](O[C@H]2C[C@@](C)(OC)[C@@H](O)[C@H](C)O2)[C@H](C)[C@@H](O[C@@H]2O[C@H](C)C[C@H](N(C)C)[C@H]2O)[C@](C)(O)C[C@@H](C)C(=O)[C@H](C)[C@@H](O)[C@]1(C)O` [erythromycin], the Phenotype (P. acnes; 23S rRNA mutation A2058G) is given as “Cla^R, Ery^R”, the Phenotype (P. acnes; 23S rRNA mutation A2059G) is given as “Cla^R, Ery^R” and the Phenotype (P. acnes; 23S rRNA mutation G2057A) is given as “Cla^R, Ery^R”. The Phenotype (E. coli; 23S rRNA mutation A2058G) was “Ery^R”, the Phenotype (E. coli; 23S rRNA mutation A2058U) was “Ery^R” and the Phenotype (E. coli; 23S rRNA mutation C2611U) was “Ery^RLin^RSgb^R”. The Phenotype (E. coli; 23S rRNA mutation G2032A) was “HS”, the Phenotype (E. coli; 23S rRNA mutation G2032C) was “HS” and the Phenotype (E. coli; 23S rRNA mutation G2032U) was “HS”. For the same compound, the Phenotype (E. coli; 23S rRNA mutation G2057A) was “Ery^R, Cam^R”, the Phenotype (M. pneumoniae; 23S rRNA mutation A2058G) was “Ery^R” and the Phenotype (M. pneumoniae; 23S rRNA mutation A2059G) was “Ery^R”.

For `CC[C@H]1OC(=O)[C@H](C)[C@@H](O[C@H]2C[C@@](C)(OC)[C@@H](O)[C@H](C)O2)[C@H](C)[C@@H](O[C@@H]2O[C@H](C)C[C@H](N(C)C)[C@H]2O)[C@](C)(OC)C[C@@H](C)C(=O)[C@H](C)[C@@H](O)[C@]1(C)O` [clarithromycin], the Phenotype (P. acnes; 23S rRNA mutation A2058G) is listed as “Cla^R, Ery^R”, the Phenotype (P. acnes; 23S rRNA mutation A2059G) is listed as “Cla^R, Ery^R” and the Phenotype (P. acnes; 23S rRNA mutation G2057A) is listed as “Cla^R, Ery^R”. The MIC value (H. pylori [1]; H. pylori strain FD591) was 16/32, the MIC (H. pylori [1]; H. pylori strain HH531) was 48 µg/mL (≈ 64.2 µM) and the MIC (H. pylori [1]; H. pylori strain KJ472) was 16 µg/mL (≈ 21.4 µM). The MIC (H. pylori [1]; H. pylori strain MC028) was 24 µg/mL (≈ 32.1 µM), the MIC (H. pylori [1]; H. pylori strain MC132) was 12 µg/mL (≈ 16 µM) and the MIC (H. pylori [1]; H. pylori strain MC141) was over 256 µg/mL. The MIC (H. pylori [1]; H. pylori strain MPS1726) was over 256 µg/mL, the MIC (H. pylori [1]; H. pylori strain MPS1765) was over 256 µg/mL and the MIC (H. pylori [1]; H. pylori strain MPS3137) was 96 µg/mL (≈ 128 µM). The MIC (H. pylori [1]; H. pylori strain MPS3286) was over 256 µg/mL, the Phenotype (H. pylori [2]; 23S rRNA mutation A2053C) was “Cla^R” and the Phenotype (H. pylori [2]; 23S rRNA mutation A2053G) was “Cla^R”. The Phenotype (H. pylori [2]; 23S rRNA mutation A2059G) was “Cla^R”, the Phenotype (M. intracellulare; 23S rRNA mutation A2053C) was “Cla^R” and the Phenotype (M. intracellulare; 23S rRNA mutation A2058G) was “Cla^R”. The Phenotype (M. intracellulare; 23S rRNA mutation A2058U) was “Cla^R”.
